The subject of the assay is PMA-induced release of HB-EGF from PBMCs from patients suffering from rheumatoid arthritis. Put plainly: ELISA-based HB-EGF release assay, PBMCs from RA-patients. It is filed as cell-based. The settings on record: Homo sapiens; chimeric antibodies (CHO) 1 μg/ml; Batimastat 10 μM; PMA 25 ng/ml, 6 hours. The procedure:
In contrast to Example 35, where the inhibitory effects of the antibodies of the present disclosure on PMA-induced release of endogenous HB-EGF from primary human material obtained from healthy donors using peripheral blood mononuclear cells (PBMCs) were tested, this analysis was conducted to analyze the inhibitory effects of the antibodies of the present disclosure on PMA-induced release of endogenous HB-EGF from primary human material obtained from patients suffering from rheumatoid arthritis (RA-patients).
In brief, on day 1, Nunc black MaxiSorp® 96-well plates (Thermo Fisher Scientific, USA) were coated overnight with 100 μl per well of rat anti-human HB-EGF capture antibody (provided as part of the DuoSet ELISA kit) at 2 μg/ml TBS at 4° C. On day 2, the capture antibody solution was removed and MaxiSorp® plates were blocked with 300 μl per well of TBS, 1% BSA at room temperature for 3 hours. […]
To avoid drying-up, 30 μl TBS were added to each well of the MaxiSorp® plates immediately, followed by the transfer of 70 μl cell-free supernatant per sample. […] Using an infinite M1000 (Tecan Group, Switzerland) microplate reader, the fluorescence of each well was collected at an excitation wavelength of 435 nm and an emission wavelength of 555 nm.
(ELISA stands for enzyme-linked immunosorbent assay.)

SMILES strings stand for the structures.

In the case of `CNC(=O)[C@H](Cc1ccccc1)NC(=O)[C@H](CC(C)C)[C@H](CSc1cccs1)C(=O)NO` [Batimastat], the inhibition at 10 µM stood at 102%.

Broadly, the inhibition is the relative decrease from the control value, in per cent.

The values above are taken from patent US20240174744A1, “METHODS OF TREATMENT USING PROTEIN BINDERS TO IRHOM2 EPITOPES” (SCIRHOM GMBH, priority 2021, published 2024).
